From patent publication US9637483B2, “Heterocyclic compound” (TAKEDA PHARMACEUTICAL COMPANY LIMITED, priority 2013, dated 2017) come the findings set out here.

Holding throughout (type): biochemical
In test [1] the target is T1, JAK3 (Homo sapiens, UniProt P52333).
T1 construct: purchased Invitrogen
T1 sequence (P52333 1-1124): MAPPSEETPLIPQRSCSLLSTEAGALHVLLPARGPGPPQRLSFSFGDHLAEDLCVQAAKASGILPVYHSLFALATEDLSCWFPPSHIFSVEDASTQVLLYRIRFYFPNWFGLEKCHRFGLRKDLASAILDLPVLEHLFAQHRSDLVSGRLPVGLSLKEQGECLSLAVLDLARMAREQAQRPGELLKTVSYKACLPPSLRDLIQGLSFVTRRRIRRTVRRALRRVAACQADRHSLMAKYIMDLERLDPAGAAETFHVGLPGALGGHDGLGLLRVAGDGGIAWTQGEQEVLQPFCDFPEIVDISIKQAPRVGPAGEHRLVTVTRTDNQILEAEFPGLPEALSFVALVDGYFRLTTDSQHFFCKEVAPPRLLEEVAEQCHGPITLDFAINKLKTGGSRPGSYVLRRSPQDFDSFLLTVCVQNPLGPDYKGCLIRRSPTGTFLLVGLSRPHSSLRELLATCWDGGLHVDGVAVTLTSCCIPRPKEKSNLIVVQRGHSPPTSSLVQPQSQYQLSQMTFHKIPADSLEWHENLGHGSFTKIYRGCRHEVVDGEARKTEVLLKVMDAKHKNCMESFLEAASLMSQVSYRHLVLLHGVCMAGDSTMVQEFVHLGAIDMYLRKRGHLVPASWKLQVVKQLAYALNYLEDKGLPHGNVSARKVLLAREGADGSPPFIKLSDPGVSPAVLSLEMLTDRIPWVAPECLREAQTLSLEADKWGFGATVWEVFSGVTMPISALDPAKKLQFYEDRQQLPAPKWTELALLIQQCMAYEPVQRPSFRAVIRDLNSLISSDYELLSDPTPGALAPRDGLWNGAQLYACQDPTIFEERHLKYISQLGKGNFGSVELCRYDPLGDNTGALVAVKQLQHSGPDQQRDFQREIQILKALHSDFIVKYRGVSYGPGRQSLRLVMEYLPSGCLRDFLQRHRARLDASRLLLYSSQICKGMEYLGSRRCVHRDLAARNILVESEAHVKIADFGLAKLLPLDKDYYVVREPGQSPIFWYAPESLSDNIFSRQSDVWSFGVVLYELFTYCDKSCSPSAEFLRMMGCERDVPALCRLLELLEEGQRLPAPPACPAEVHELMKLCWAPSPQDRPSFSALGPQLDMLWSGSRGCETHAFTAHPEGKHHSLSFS
Kind of test: JAK3 enzyme inhibition test (LANCE method). The conditions noted are these: 1 μM test compound; for inhibition at 1 µM: read-out: JAK3 enzyme inhibitory activity (%, 1 μM). On the procedure: (§1) JAK3 enzyme inhibitory activity of test compounds was measured by the LANCE method (PerkinElmer). First, a test compound diluted with assay buffer (50 mM HEPES (pH 7.5), 10 mM MgCl2, 1 mM EGTA, 2 mM DTT, 0.01% Tween20, 0.01% BSA) was added to a 384-well plate by 2 μL each. Then, a JAK3 (Invitrogen) solution and a fluorescence-labeled peptide substrate (ULight-JAK1, PerkinElmer) solution diluted with assay buffer to 12 ng/mL and 300 nM, respectively, were added by 2 μL each. Then, an enzyme reaction was started by adding 2 μL each of ATP solution prepared with assay buffer to 15 μM. After the reaction at room temperature for 1 hr, Detection Buffer (PerkinElmer) prepared to contain 20 mM EDTA, 4 nM europium-labeled anti-phosphotyrosine antibody (PerkinElmer) was added by 6 μL each. After standing at room temperature for 1 hr, fluorescence intensity (excitation wavelength 340 nm, fluorescence wavelength 665 nm, delay time 100 microseconds) was measured by a plate reader, Envision (PerkinElmer). The inhibitory activity of each compound was calculated as a relative activity value to the fluorescence intensity of a well free of enzyme as 100% inhibition.
Background: TR-FRET usually uses a lanthanide donor and a delayed reading to cut background.

The target in test [2] is T2, JAK1 (Homo sapiens, UniProt P23458).
T2 construct: purchased Invitrogen
T2 sequence (P23458 whole entry): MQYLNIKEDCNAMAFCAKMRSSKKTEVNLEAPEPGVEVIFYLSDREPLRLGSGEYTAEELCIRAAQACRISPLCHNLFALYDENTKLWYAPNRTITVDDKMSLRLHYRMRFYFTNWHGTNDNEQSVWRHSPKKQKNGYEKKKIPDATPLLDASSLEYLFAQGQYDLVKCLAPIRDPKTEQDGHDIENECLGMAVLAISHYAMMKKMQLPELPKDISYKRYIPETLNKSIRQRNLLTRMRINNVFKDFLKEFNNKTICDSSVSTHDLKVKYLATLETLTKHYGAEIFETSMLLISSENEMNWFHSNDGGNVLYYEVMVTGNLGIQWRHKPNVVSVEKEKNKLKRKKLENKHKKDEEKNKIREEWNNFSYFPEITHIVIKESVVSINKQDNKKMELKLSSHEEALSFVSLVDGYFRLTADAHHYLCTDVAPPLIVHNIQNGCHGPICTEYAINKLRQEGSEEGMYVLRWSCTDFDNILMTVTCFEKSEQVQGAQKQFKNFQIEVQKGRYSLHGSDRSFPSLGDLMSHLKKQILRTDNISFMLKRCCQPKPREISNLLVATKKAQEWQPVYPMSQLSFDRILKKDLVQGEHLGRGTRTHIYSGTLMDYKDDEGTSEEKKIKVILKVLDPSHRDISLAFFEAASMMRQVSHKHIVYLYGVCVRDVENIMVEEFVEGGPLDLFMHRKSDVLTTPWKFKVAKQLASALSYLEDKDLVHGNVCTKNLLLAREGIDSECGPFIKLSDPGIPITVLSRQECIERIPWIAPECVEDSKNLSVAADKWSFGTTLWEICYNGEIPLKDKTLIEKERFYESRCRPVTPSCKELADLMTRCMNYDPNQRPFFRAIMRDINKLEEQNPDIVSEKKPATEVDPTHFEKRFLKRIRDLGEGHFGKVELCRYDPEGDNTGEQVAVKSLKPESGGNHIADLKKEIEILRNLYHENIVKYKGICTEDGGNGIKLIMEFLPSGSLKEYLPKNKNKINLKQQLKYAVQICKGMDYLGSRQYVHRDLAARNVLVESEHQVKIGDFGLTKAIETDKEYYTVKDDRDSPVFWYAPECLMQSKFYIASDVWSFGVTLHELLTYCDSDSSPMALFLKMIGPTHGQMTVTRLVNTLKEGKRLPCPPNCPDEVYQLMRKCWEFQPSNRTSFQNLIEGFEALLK
Kind of test: JAK1 enzyme inhibition test (LANCE method). The conditions noted are these: 1 μM test compound; for inhibition at 1 µM: read-out: JAK1 enzyme inhibitory activity (%, 1 μM). On the procedure: as §1, with “JAK1” for “JAK3”, “187.5” for “12”, “150” for “15”

The target in test [3] is T3, TYK2 (Homo sapiens, UniProt P29597).
T3 construct: purchased Invitrogen
T3 sequence (P29597 whole entry): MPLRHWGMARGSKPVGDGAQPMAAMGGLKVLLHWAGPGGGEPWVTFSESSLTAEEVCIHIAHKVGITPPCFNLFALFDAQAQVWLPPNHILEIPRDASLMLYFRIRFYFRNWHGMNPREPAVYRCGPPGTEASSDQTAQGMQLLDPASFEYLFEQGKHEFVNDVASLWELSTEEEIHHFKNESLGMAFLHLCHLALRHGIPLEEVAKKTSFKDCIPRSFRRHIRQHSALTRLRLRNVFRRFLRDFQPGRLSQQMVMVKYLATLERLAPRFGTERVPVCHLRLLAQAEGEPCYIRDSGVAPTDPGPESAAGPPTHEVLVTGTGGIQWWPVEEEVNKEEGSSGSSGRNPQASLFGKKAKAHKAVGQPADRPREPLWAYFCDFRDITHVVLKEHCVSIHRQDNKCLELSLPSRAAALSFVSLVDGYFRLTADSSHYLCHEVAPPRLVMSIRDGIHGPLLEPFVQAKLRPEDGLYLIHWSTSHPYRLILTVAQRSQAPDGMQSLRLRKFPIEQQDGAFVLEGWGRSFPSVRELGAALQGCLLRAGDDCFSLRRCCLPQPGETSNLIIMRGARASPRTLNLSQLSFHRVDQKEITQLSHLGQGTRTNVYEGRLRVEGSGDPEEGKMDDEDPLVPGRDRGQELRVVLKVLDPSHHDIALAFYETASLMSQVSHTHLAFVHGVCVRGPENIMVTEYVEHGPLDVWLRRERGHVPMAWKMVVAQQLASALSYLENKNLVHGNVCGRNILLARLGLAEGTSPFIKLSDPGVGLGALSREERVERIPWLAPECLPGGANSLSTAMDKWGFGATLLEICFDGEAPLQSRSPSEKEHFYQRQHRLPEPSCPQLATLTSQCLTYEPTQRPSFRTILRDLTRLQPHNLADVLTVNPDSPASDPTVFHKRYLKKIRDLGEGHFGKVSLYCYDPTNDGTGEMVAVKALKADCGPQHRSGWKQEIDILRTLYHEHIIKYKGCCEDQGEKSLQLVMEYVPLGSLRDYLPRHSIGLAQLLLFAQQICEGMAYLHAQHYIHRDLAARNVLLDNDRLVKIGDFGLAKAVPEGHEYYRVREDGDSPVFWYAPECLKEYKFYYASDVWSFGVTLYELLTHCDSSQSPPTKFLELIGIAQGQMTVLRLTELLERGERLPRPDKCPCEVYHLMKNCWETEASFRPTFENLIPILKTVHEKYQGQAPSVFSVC
The test is described as follows: TYK2 enzyme inhibition test (LANCE method). The conditions noted are these: 1 μM test compound; for inhibition at 1 µM: read-out: TYK2 enzyme inhibitory activity (%, 1 μM). The protocol: as §1, with “TYK2” for “JAK3”, “375” for “12”, “30” for “15”

Test [4] addresses T4, JAK2 (Homo sapiens, UniProt O60674).
T4 construct: purchased Invitrogen
Kind of test: JAK2 enzyme inhibition test (LANCE method). The conditions noted are these: 1 μM test compound; for inhibition at 1 µM: read-out: JAK2 enzyme inhibitory activity (%, 1 μM). The protocol:
as §1, with “JAK2” for “JAK3”, “6” for “12”, “45” for “15”

T4 sequence (O60674 whole entry): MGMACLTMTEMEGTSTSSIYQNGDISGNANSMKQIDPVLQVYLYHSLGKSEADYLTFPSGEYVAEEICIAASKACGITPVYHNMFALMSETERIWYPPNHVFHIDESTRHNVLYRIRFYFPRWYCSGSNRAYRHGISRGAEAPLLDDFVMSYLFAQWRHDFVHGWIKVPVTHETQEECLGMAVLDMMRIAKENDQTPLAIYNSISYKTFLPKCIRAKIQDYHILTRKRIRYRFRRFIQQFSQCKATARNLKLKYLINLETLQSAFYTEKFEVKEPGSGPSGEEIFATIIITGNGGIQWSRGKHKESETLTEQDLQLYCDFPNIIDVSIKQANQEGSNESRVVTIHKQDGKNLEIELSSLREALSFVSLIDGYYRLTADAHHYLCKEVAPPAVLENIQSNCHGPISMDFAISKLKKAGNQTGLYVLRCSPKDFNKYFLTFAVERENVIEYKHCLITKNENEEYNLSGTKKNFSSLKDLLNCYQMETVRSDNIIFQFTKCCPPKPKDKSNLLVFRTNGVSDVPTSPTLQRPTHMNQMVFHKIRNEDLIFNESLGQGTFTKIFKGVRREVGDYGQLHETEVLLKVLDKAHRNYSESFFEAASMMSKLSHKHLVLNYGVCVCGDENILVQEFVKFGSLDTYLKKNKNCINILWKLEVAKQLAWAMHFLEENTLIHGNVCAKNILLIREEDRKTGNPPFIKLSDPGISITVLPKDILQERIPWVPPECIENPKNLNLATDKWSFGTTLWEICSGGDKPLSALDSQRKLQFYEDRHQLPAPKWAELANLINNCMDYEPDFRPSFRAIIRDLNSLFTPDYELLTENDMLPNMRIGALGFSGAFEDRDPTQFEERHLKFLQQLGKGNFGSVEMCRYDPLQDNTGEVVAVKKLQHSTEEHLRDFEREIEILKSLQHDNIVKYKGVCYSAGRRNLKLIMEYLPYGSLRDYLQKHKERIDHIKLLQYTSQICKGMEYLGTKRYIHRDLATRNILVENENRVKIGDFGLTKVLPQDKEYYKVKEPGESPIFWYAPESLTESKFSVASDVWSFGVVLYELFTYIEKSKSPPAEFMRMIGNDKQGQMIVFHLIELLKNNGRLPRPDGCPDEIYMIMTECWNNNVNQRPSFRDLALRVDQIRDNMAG

Regarding `CC(C)[C@H](C)n1cc(-c2cc(N3CCN4CCCC4C3)n(C)n2)c2[nH]nc(N)c2c1=O` (stereo partly drawn) [Example 61, 3-amino-7-(5-(hexahydropyrrolo[1,2-a]pyrazin-2 (H)-yl)-1-methyl-1H-pyrazol-3-yl)-5-((2S)-3-methylbutan-2-yl)-1,5-dihydro-4H-pyrazolo[4,3-c]pyridin-4-one], the “JAK3 enzyme inhibitory activity (%, 1 μM)” value in test [1] came out at 100%. The “JAK1 enzyme inhibitory activity (%, 1 μM)” value in test [2] amounted to 97%. The “TYK2 enzyme inhibitory activity (%, 1 μM)” value in test [3] is on record as 99%. In addition, the “JAK2 enzyme inhibitory activity (%, 1 μM)” value in test [4] is 99%.

As for `C[C@H](C1CC1)n1cc(-c2cc(N3CCOCC3)n(C)n2)c2[nH]nc(N)c2c1=O` [Example 6, 3-amino-5-((1R)-1-cyclopropylethyl)-7-(1-methyl-5-(morpholin-4-yl)-1H-pyrazol-3-yl)-1,5-dihydro-4H-pyrazolo[4,3-c]pyridin-4-one], the inhibition at 1 µM was determined as 98% in test [1], 96% in test [2], 100% in test [3] and 93% in test [4].

Turning to `COC(C)(C)c1cc(-c2cn(-c3c(F)cccc3C#N)c(=O)c3c(N)n[nH]c23)nn1C` [Example 121, 2-(3-amino-7-(5-(2-methoxypropan-2-yl)-1-methyl-1H-pyrazol-3-yl)-4-oxo-1,4-dihydro-5H-pyrazolo[4,3-c]pyridin-5-yl)-3-fluorobenzonitrile], the inhibition at 1 µM in test [1] stood at 97%; in test [2], 98%; in test [3], 100%; in test [4], 98%.

Regarding `CC1CCCCC1n1cc(-c2cc(N3CCOCC3)n(C)n2)c2[nH]nc(N)c2c1=O` (racemic) [Example 146, 3-amino-5-(2-methylcyclohexyl)-7-(1-methyl-5-(morpholin-4-yl)-1H-pyrazol-3-yl)-1,5-dihydro-4H-pyrazolo[4,3-c]pyridin-4-one], the inhibition at 1 µM amounted to 100% in test [1], 99% in test [2], 100% in test [3] and 99% in test [4].

With `CO[C@@H]1CCN(c2cc(-c3cn(C(C4CC4)C4CC4)c(=O)c4c(N)n[nH]c34)nn2C)C1` [Example 164, 3-amino-5-(dicyclopropylmethyl)-7-(5-((3R)-3-methoxypyrrolidin-1-yl)-1-methyl-1H-pyrazol-3-yl)-1,5-dihydro-4H-pyrazolo[4,3-c]pyridin-4-one], the inhibition at 1 µM turned out to be 100% in test [1], 99% in test [2], 101% in test [3] and 99% in test [4].

Take `Cn1nc(-c2cn(C(C3CC3)C3CC3)c(=O)c3c(N)n[nH]c23)cc1N1CCS(=O)(=O)CC1` [Example 78, 3-amino-5-(dicyclopropylmethyl)-7-(5-(1,1-dioxidothiomorpholin-4-yl)-1-methyl-1H-pyrazol-3-yl)-1,5-dihydro-4H-pyrazolo[4,3-c]pyridin-4-one]: the inhibition at 1 µM in test [1] came out at 100%; in test [2] it was 98%; in test [3], 99%; in test [4], 99%.

Turning to `CC1CCCCC1n1cc(-c2cc(N3CCOCC3)n(C)n2)c2[nH]nc(N)c2c1=O` (centres unmarked) [Example 154, 3-amino-5-(2-methylcyclohexyl)-7-(1-methyl-5-(morpholin-4-yl)-1H-pyrazol-3-yl)-1,5-dihydro-4H-pyrazolo[4,3-c]pyridin-4-one], the “JAK3 enzyme inhibitory activity (%, 1 μM)” value in test [1] stood at 100%. The “JAK1 enzyme inhibitory activity (%, 1 μM)” value in test [2] is given as 97%. Besides, in test [3] (1 µM), the “TYK2 enzyme inhibitory activity (%, 1 μM)” value is on record as 102%. For the same compound, the “JAK2 enzyme inhibitory activity (%, 1 μM)” value in test [4] was found to be 98%.

In the case of `Cn1nc(-c2cn(C3CCCC3(C)C)c(=O)c3c(N)n[nH]c23)cc1N1CCOCC1` (centres unmarked) [Example 76, 3-amino-5-(2,2-dimethylcyclopentyl)-7-(1-methyl-5-(morpholin-4-yl)-1H-pyrazol-3-yl)-1,5-dihydro-4H-pyrazolo[4,3-c]pyridin-4-one], the inhibition at 1 µM in test [1] amounted to 100%; in test [2] it was 99%; in test [3] it was 100%; in test [4], 99%.
